According to PubChem BioAssay AID489023 (Sanford-Burnham Center for Chemical Genomics, 2010):
Calls of active or inactive are those of the source. The rule behind the calls is not given here.

What follows are molecules tested on 697B cells, BCR-induced NF-kB luciferase reporter luminescence (assay: B-cell receptor NF-kB reporter inhibition – 697B cells, luciferase luminescence, dose response (AID 489023)).

SMILES | IC50
CCN(CC(=O)Nc1c(F)cccc1F)C(=O)c1cc([N+](=O)[O-])ccc1N1CCCCC1 | 13.6 µM
Cn1c(=O)n(C)c2cc(/C=C3/NC(=O)N(Cc4ccccc4)C3=O)ccc21 | > 80 µM (inactive)
Cn1nc(-c2ccc(Cl)cc2)c2cc(C(=O)N3CCCC3)sc21 | > 80 µM (inactive)
CCOc1cc(/C=N\Nc2nc(Nc3ccccc3)nc(N3CCOCC3)n2)ccc1OC(=O)c1ccco1 | 1.25 µM
O=C(NNC(=O)C12CC3CC(CC(C3)C1)C2)c1cccc(O)c1 | 16.5 µM
COc1ccc(C(=O)Nc2ccccc2C(=O)NCc2ccco2)cc1OC | > 80 µM (inactive)
O=S(=O)(NCc1ccncc1)c1ccc(Br)s1 | > 80 µM (inactive)
Cc1ccc(-c2nn3c(C)nnc3c3ccccc23)cc1S(=O)(=O)N1CCN(CCO)CC1 | 26.5 µM (inactive)
COc1cc(/C=N/Nc2nc(Nc3ccccc3)nc(N3CCOCC3)n2)ccc1OC(=O)c1ccco1 | 5.16 µM
CC1=CC(C)(C)Nc2ccc(OC(=O)c3cccnc3)cc21 | 14.3 µM
Cc1[nH]c2ccccc2c1C(=O)CN1C(=O)NC2(CC(C)CC(C)(C)C2)C1=O (stereo not given) | 6.97 µM
O=C(NCCCN1CCOCC1)c1cc(-c2ccc(Br)cc2)on1 | 48.1 µM (inactive)
O=C(Nc1nc2c(Br)cc(Br)cc2c(=O)s1)c1ccco1 | 1.8 µM
CC(C)CN(C(=O)COC(=O)C12CC3CC(CC(C3)C1)C2)c1c(N)n(Cc2ccccc2)c(=O)[nH]c1=O | 5.71 µM
Cc1ccc(/C=C2\SC(=S)N(CCCC(=O)NC3CCCC3)C2=O)cc1 | 1.13 µM
CC1CCN(CCCNC(=O)COc2cc(=O)n(C)c3ccccc23)CC1 | > 80 µM (inactive)
CN(C)C(=O)CCc1nc(-c2ccc(C(C)(C)C)cc2)no1 | 18.8 µM
C=C1C(=O)[C@@]23C[C@H]4[C@@H]5[C@@]6(C)CCC[C@@]57[C@@H]2[C@@H](O)[C@@H]1C[C@H]3[C@H]7N4C6 | 2.89 µM
CN1C(=O)CC(c2ccco2)Sc2ccccc21 (stereo not given) | > 80 µM (inactive)
COc1ccc(NC(=S)NCc2ccccc2)c(OC)c1 | > 80 µM (inactive)
Cc1ccccc1Nc1nc(Cl)c(C=O)s1 | > 80 µM (inactive)
N=c1ccn(Cc2c(Cl)cccc2Cl)cc1 | > 80 µM (inactive)
COc1ccc(C(=O)Nc2ccc(OC)c([N+](=O)[O-])c2)cc1Br | > 80 µM (inactive)
COc1cccc(/C=C2/SC(=S)N(CCCC(=O)Nc3ccc(O)cc3)C2=O)c1 | 1.49 µM
CCNc1nc(C)c2cc(Br)c(=O)n(CC)c2n1 | 1.48 µM

SMILES | IC50
O=C(N/N=C/c1cccnc1)c1cc(-c2ccccc2OCc2ccccc2)n[nH]1 | 6.82 µM
CCn1c(=O)c2cc(C(=O)NC(C)C)sc2c2ccccc21 | > 80 µM (inactive)
C=C(C)[C@@H]1CCC2(C(=O)O)CC[C@]3(C)[C@H](CC[C@@H]4[C@@]5(C)CCC(=O)C(C)(C)[C@@H]5CC[C@]43C)[C@@H]12 (stereo not given in full) | 71.6 µM (inactive)
Cc1cc(OCC(=O)Nc2ccc(CCO)cc2)c2c(C)c(C)c(=O)oc2c1 | > 80 µM (inactive)
Cc1cc(OCC(=O)N2CCC(C(N)=O)CC2)c2c3c(c(=O)oc2c1)CCCC3 | > 80 µM (inactive)
CCOc1ccc(-c2noc(CCC(=O)O)n2)cc1 | 4.12 µM
O=C(CN1C(=O)c2ccccc2S1(=O)=O)c1ccccc1Cl | 1.13 µM
COc1ccc(/C=C2\SC(=S)N(CCC(=O)Nc3ccc(C(=O)O)cc3)C2=O)cc1 | > 80 µM (inactive)
O=C(CCl)Nc1ccccc1Sc1ccccc1 | 15.9 µM
O=C(Oc1cccc(/C=N/Nc2nc(N3CCOCC3)nc(N3CCOCC3)n2)c1)c1ccco1 | 18.4 µM
CC(C)(C)c1ccc(-c2noc(CCC(=O)Nc3cccnc3)n2)cc1 | < 0.16 µM
COC(=O)CSc1nnc(-c2sc3ccccc3c2Cl)o1 | 10.3 µM
CN1CCN(C(=O)c2ccccc2N(Cc2ccccc2)S(=O)(=O)c2ccccc2)CC1 | 29.2 µM (inactive)
COc1ccc(NC(=O)c2cc3c(Cl)nc4ccccc4c3s2)cc1OC | 60.3 µM (inactive)
COc1ccc(-c2ccc(C)cc2)cc1[C@H]1[C@H]2C=CC[C@@H](C)[C@@H]2C(=O)N1Cc1ccccc1 | > 80 µM (inactive)
Cc1cc(=O)[nH]c2c(C)cc(S(=O)(=O)N3CCCCC3)cc12 | > 80 µM (inactive)
C=CCn1c(O)c(C(CC)=NC(C)c2ccccc2)c(=O)[nH]c1=O (stereo not given) | 56.4 µM (inactive)
CCN(CC)C(=O)c1ccc(S(=O)(=O)Cc2ccc(C)cc2)c([N+](=O)[O-])c1 | 3.55 µM
CCOC(=O)c1sc(NC(=O)c2cc(-c3ccccc3C)nc3ccccc23)c(C#N)c1C | 19.3 µM
COc1cc(Br)c(C(=O)c2nccc3cc(OC)c(OC)cc23)cc1OC | > 80 µM (inactive)
CCN1C(=O)Nc2cccc3cccc1c23 | 35.2 µM (inactive)
Cc1cc(OCC(=O)NC2CC2)c2c(C)c(C)c(=O)oc2c1 | > 80 µM (inactive)
CN1C(=O)CSc2ccc(NC(=O)N3CCN(c4ccccc4)CC3)cc21 | 74 µM (inactive)
CC1(c2nnc(-c3cccc(Cl)c3)o2)CC(c2cccc(Cl)c2)=NO1 (stereo not given) | > 80 µM (inactive)
O=C(NNC(=O)C12CC3CC(CC(Br)(C3)C1)C2)c1ccccc1F | 12.1 µM
